The record followed here is patent US20230277534A1 (Plexxikon Inc., priority 2011, published 2023).

One may read the IC50 as the concentration that gives 50% inhibition. Low values mean inhibition by little substance, high ones a need for much substance.

Structures are written as SMILES. Some results are limits rather than exact numbers.

The target in one assay is B-Raf V600E (Homo sapiens (Human), UniProt P15056, V600E). The assay is described as follows: B-Raf V600E kinase biochemical activity assay (AlphaScreen, biotin-MEK1 substrate). The note with it: 100 μM ATP. In outline: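 B-Raf V600E (0.1 ng) phosphorylated 100 nM biotin-MEK1 with 100 μM ATP (final) in HEPES pH 7.0 with Mg2+/Mn2+ for 45 min at room temperature. Compounds were tested over an 8-point serial dilution. Phospho-MEK1/2 was detected by AlphaScreen after 3 h with beads, and IC50 came from signal versus concentration.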
In general terms: In Alpha technology, singlet oxygen from a donor bead excites a nearby acceptor bead.

Assay [1] concerns COLO205 colon adenocarcinoma cells (B-Raf V600E mutation). Nature of the assay: COLO205 cell growth inhibition (ATPlite). The assay is classed as cell-based. Particulars: Homo sapiens, COLO 205, 72 h, 3 days. In short, it runs like this:
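Cells treated for 3 days at 37 °C, 5% CO2 with an 8-point 1:3 dilution series, top final concentration 10 μM, DMSO control. ATPlite luminescence used as a measure of cell number; IC50 from reading versus concentration.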
For orientation: In ATP-based viability assays light output follows the ATP content of the culture.

B-Raf V600E, sequence (P15056 whole entry V600E): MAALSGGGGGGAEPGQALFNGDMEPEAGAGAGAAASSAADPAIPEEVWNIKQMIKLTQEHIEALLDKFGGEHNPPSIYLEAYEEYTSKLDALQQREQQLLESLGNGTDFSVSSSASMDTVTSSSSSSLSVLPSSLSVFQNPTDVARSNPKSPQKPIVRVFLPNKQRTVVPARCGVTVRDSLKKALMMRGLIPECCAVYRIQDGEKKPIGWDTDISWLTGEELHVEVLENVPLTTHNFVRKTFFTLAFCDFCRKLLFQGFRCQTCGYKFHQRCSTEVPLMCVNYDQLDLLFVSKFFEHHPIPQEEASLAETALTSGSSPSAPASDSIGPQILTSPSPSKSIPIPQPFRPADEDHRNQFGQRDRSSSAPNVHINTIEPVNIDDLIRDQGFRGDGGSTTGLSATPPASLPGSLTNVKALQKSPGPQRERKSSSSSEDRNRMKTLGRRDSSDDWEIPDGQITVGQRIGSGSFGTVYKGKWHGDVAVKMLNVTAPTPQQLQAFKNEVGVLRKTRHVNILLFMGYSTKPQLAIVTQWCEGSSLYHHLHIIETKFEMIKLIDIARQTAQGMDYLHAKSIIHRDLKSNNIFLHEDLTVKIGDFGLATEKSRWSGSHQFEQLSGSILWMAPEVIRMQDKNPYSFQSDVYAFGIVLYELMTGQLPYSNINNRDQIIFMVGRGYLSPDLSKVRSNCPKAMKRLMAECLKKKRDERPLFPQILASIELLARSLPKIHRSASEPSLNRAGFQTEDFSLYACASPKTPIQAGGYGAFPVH

Take `O=C(c1c(F)ccc(NS(=O)(=O)N2CCCC2)c1F)c1c[nH]c2ncc(-c3ccnc(N4CCOCC4)n3)cc12` [Compound P-0282, N-[2,4-difluoro-3-[5-(2-morpholinopyrimidin-4-yl)-1H-pyrrolo[2,3-b]pyridine-3-carbonyl]phenyl]pyrrolidine-1-sulfonamide]: the IC50 is < 0.1 µM against B-Raf V600E and < 1 µM in assay [1].
On to `CCN(C)S(=O)(=O)Nc1ccc(F)c(C(=O)c2c[nH]c3ncc(-c4ccnc(F)c4)cc23)c1F` [Compound P-0283, 3-[3-[[ethyl(methyl)sulfamoyl]amino]-2,6-difluoro-benzoyl]-5-(2-fluoro-4-pyridyl)-1H-pyrrolo[2,3-b]pyridine], for which the IC50 against B-Raf V600E is < 0.1 µM; in assay [1], < 1 µM.
The matching figures for `CN1CCN(c2cc(-c3cnc4[nH]cc(C(=O)c5c(F)ccc(NS(=O)(=O)N6CCCC6)c5F)c4c3)ccn2)CC1` [Compound P-0285, N-[2,4-difluoro-3-[5-[2-(4-methylpiperazin-1-yl)-4-pyridyl]-1H-pyrrolo[2,3-b]pyridine-3-carbonyl]phenyl]pyrrolidine-1-sulfonamide]: < 0.1 µM and < 1 µM.
The corresponding values for `O=C(c1c(F)ccc(NS(=O)(=O)N2CC[C@H](F)C2)c1F)c1c[nH]c2ncc(-c3cnc(C4CC4)nc3)cc12` [Compound P-0289, (3S)—N-[3-[5-(2-cyclopropylpyrimidin-5-yl)-1H-pyrrolo[2,3-b]pyridine-3-carbonyl]-2,4-difluoro-phenyl]-3-fluoro-pyrrolidine-1-sulfonamide] are < 0.1 µM and < 1 µM.
On to `CCN(C)S(=O)(=O)Nc1ccc(F)c(C(=O)c2c[nH]c3ncc(-c4cnc(N5CCCC5)nc4)cc23)c1F` [Compound P-0293, 3-[3-[[ethyl(methyl)sulfamoyl]amino]-2,6-difluoro-benzoyl]-5-(2-pyrrolidin-1-ylpyrimidin-5-yl)-1H-pyrrolo[2,3-b]pyridine], for which the IC50 was < 0.1 µM against B-Raf V600E and < 1 µM in assay [1].
With `CCN(C)S(=O)(=O)Nc1cccc(C(=O)c2c[nH]c3ncc(C4CCC4)cc23)c1F` [Compound P-0297, 5-cyclobutyl-3-[3-[[ethyl(methyl)sulfamoyl]amino]-2-fluoro-benzoyl]-1H-pyrrolo[2,3-b]pyridine], the results for the IC50 (against B-Raf V600E; in assay [1]) were < 0.1 µM and > 1 µM, respectively.
On to `CCN(C)S(=O)(=O)Nc1cccc(C(=O)c2c[nH]c3ncc(C4CC4)cc23)c1F` [Compound P-0298, 5-cyclopropyl-3-[3-[[ethyl(methyl)sulfamoyl]amino]-2-fluoro-benzoyl]-1H-pyrrolo[2,3-b]pyridine], for which the IC50 is < 0.1 µM on B-Raf V600E and > 1 µM in assay [1].
The matching figures for `Nc1cc(-c2cnc3[nH]cc(C(=O)c4cccc(NS(=O)(=O)N5CCCC5)c4F)c3c2)ncn1` [Compound P-0299, N-[3-[5-(6-aminopyrimidin-4-yl)-1H-pyrrolo[2,3-b]pyridine-3-carbonyl]-2-fluoro-phenyl]pyrrolidine-1-sulfonamide]: < 0.1 µM and > 1 µM.
The corresponding values for `CCN(C)S(=O)(=O)Nc1ccc(F)c(C(=O)c2c[nH]c3ncc(-c4ccc(C(F)(F)F)cc4)cc23)c1F` [Compound P-0301, 3-[3-[[ethyl(methyl)sulfamoyl]amino]-2,6-difluoro-benzoyl]-5-[4-(trifluoromethyl)phenyl]-1H-pyrrolo[2,3-b]pyridine] are < 0.1 µM and > 1 µM.
The corresponding values for `CCN(C)S(=O)(=O)Nc1ccc(F)c(C(=O)c2c[nH]c3ncc(-c4ccc(N5CCCC5)cc4)cc23)c1F` [Compound P-0303, 3-[3-[[ethyl(methyl)sulfamoyl]amino]-2,6-difluoro-benzoyl]-5-(4-pyrrolidin-1-ylphenyl)-1H-pyrrolo[2,3-b]pyridine] are < 0.1 µM and > 1 µM.
As to `CCN(C)S(=O)(=O)Nc1ccc(F)c(C(=O)c2c[nH]c3ncc(-c4ccc(-c5nnc(C)o5)cc4)cc23)c1F` [Compound P-0304, 2-[4-[3-[3-[[ethyl(methyl)sulfamoyl]amino]-2,6-difluoro-benzoyl]-1H-pyrrolo[2,3-b]pyridin-5-yl]phenyl]-5-methyl-1,3,4-oxadiazole], the IC50 was < 0.1 µM on B-Raf V600E and < 1 µM in assay [1].
On to `CCN(C)S(=O)(=O)Nc1ccc(F)c(C(=O)c2c[nH]c3ncc(-c4ccc(-c5nnc(NC)s5)cc4)cc23)c1F` [Compound P-0305, 2-[4-[3-[3-[[ethyl(methyl)sulfamoyl]amino]-2,6-difluoro-benzoyl]-1H-pyrrolo[2,3-b]pyridin-5-yl]phenyl]-5-(methylamino)-1,3,4-thiadiazole], for which the values for the half-maximal inhibitory concentration (IC50) (on B-Raf V600E; in assay [1]) were < 0.1 µM and < 1 µM, respectively.
For the molecule `CCN(C)S(=O)(=O)Nc1ccc(F)c(C(=O)c2c[nH]c3ncc(-c4cncc(C(C)(C)O)c4)cc23)c1F` [Compound P-0306, 3-[3-[[ethyl(methyl)sulfamoyl]amino]-2,6-difluoro-benzoyl]-5-[5-(1-hydroxy-1-methyl-ethyl)-3-pyridyl]-1H-pyrrolo[2,3-b]pyridine], the 50% inhibitory concentration (IC50) at B-Raf V600E was < 0.1 µM; in assay [1] it was < 1 µM.
On to `CCN(C)S(=O)(=O)Nc1ccc(F)c(C(=O)c2c[nH]c3ncc(-c4ccc(C(C)(C)O)nc4)cc23)c1F` [Compound P-0307, 3-[3-[[ethyl(methyl)sulfamoyl]amino]-2,6-difluoro-benzoyl]-5-[6-(1-hydroxy-1-methyl-ethyl)-3-pyridyl]-1H-pyrrolo[2,3-b]pyridine], for which the half-maximal inhibitory concentration (IC50) against B-Raf V600E was < 0.1 µM; in assay [1] it was < 1 µM.
The corresponding values for `CCN(CC)c1ccc(-c2cnc3[nH]cc(C(=O)c4c(F)ccc(NS(=O)(=O)N(C)CC)c4F)c3c2)cc1` [Compound P-0308, 5-[4-(diethylamino)phenyl]-3-[3-[[ethyl(methyl)sulfamoyl]amino]-2,6-difluoro-benzoyl]-1H-pyrrolo[2,3-b]pyridine] are < 0.1 µM and < 1 µM.
The corresponding values for `CCN(C)S(=O)(=O)Nc1ccc(F)c(C(=O)c2c[nH]c3ncc(-c4ccc5c(c4)NC(=O)C5)cc23)c1F` [Compound P-0309, 3-[3-[[ethyl(methyl)sulfamoyl]amino]-2,6-difluoro-benzoyl]-5-(2-oxoindolin-6-yl)-1H-pyrrolo[2,3-b]pyridine] are < 0.1 µM and < 1 µM.
The matching figures for `CCN(C)S(=O)(=O)Nc1ccc(F)c(C(=O)c2c[nH]c3ncc(-c4ccc(-c5noc(C)n5)s4)cc23)c1F` [Compound P-0310, 3-[5-[3-[3-[[ethyl(methyl)sulfamoyl]amino]-2,6-difluoro-benzoyl]-1H-pyrrolo[2,3-b]pyridin-5-yl]-2-thienyl]-5-methyl-1,2,4-oxadiazole]: < 0.1 µM and < 1 µM.
On to `CCN(C)S(=O)(=O)Nc1ccc(F)c(C(=O)c2c[nH]c3ncc(-c4ccc5nc(N)ncc5c4)cc23)c1F` [Compound P-0311, 2-amino-6-[3-[3-[[ethyl(methyl)sulfamoyl]amino]-2,6-difluoro-benzoyl]-1H-pyrrolo[2,3-b]pyridin-5-yl]quinazoline], for which the figures for the half-maximal inhibitory concentration (IC50) (on B-Raf V600E; in assay [1]) were < 0.1 µM and < 1 µM, respectively.
The matching figures for `CCN(C)S(=O)(=O)Nc1ccc(F)c(C(=O)c2c[nH]c3ncc(-c4ccc5nc(N(C)C)ncc5c4)cc23)c1F` [Compound P-0313, 2-(dimethylamino)-6-[3-[3-1[[ethyl(methyl)sulfamoyl]amino]-2,6-difluoro-benzoyl]-1H-pyrrolo[2,3-b]pyridin-5-yl]quinazoline]: < 0.1 µM and < 1 µM.
The matching figures for `CCN(C)S(=O)(=O)Nc1ccc(F)c(C(=O)c2c[nH]c3ncc(-c4ccc(C5(O)CC5)cc4)cc23)c1F` [Compound P-0314, 3-[3-1[[ethyl(methyl)sulfamoyl]amino]-2,6-difluoro-benzoyl]-5-[4-(1-hydroxycyclopropyl)phenyl]-1H-pyrrolo[2,3-b]pyridine]: < 0.1 µM and < 1 µM.
The matching figures for `CCN(C)S(=O)(=O)Nc1ccc(F)c(C(=O)c2c[nH]c3ncc(-c4cncs4)cc23)c1F` [Compound P-0315, 5-[3-[3-[[ethyl(methyl)sulfamoyl]amino]-2,6-difluoro-benzoyl]-1H-pyrrolo[2,3-b]pyridin-5-yl]thiazole]: < 0.1 µM and < 1 µM.
Regarding `CCN(C)S(=O)(=O)Nc1ccc(F)c(C(=O)c2c[nH]c3ncc(-c4csc(C(C)(C)O)n4)cc23)c1F` [Compound P-0316, 4-[3-[3-[[ethyl(methyl)sulfamoyl]amino]-2,6-difluoro-benzoyl]-1H-pyrrolo[2,3-b]pyridin-5-yl]-2-(1-hydroxy-1-methyl-ethyl)thiazole], the IC50 was < 0.1 µM on B-Raf V600E and < 1 µM in assay [1].
The corresponding values for `CCN(C)S(=O)(=O)Nc1ccc(F)c(C(=O)c2c[nH]c3ncc(-c4ccc(OC)nn4)cc23)c1F` [Compound P-0317, 3-[3-[[ethyl(methyl)sulfamoyl]amino]-2,6-difluoro-benzoyl]-5-(6-methoxypyridazin-3-yl)-1H-pyrrolo[2,3-b]pyridine] are < 0.1 µM and < 1 µM.
The corresponding values for `O=C(c1c(F)ccc(NS(=O)(=O)N2CCCC2)c1F)c1c[nH]c2ncc(-c3cc(N4CCOCC4)ncn3)cc12` [Compound P-0318, N-[2,4-difluoro-3-[5-(6-morpholinopyrimidin-4-yl)-1H-pyrrolo[2,3-b]pyridine-3-carbonyl]phenyl]pyrrolidine-1-sulfonamide] are < 0.1 µM and < 1 µM.
The matching figures for `O=C(c1cccc(NS(=O)(=O)N2CCCC2)c1F)c1c[nH]c2ncc(-c3cc(N4CCOCC4)ncn3)cc12` [Compound P-0321, N-[2-fluoro-3-[5-(6-morpholinopyrimidin-4-yl)-1H-pyrrolo[2,3-b]pyridine-3-carbonyl]phenyl]pyrrolidine-1-sulfonamide]: < 0.1 µM and < 1 µM.
